Experimental data reported in PubChem BioAssay AID825 (PCMD, 2007).
Inconclusive results are not listed. Active and inactive are the calls of the source. How the calls were made is not given here.

Biological target: Procathepsin L (Homo sapiens) (UniProt P07711)
Test: IC50 of CTSL protease blockers – biochemical, confirmation, dose response (AID 825)
Details: purified cathepsin L enzyme activity, signal read-out

Procathepsin L (Homo sapiens), sequence (P07711 114-288 limits assumed): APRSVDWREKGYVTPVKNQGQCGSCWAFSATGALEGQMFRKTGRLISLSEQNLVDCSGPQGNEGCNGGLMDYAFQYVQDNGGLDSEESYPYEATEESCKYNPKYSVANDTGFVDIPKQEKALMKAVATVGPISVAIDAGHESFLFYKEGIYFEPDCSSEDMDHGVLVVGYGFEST
Procathepsin L (Homo sapiens), sequence (P07711 292-333 limits assumed): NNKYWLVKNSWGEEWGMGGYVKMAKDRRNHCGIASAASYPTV

IC50 | SMILES
> 50 µM (inactive) | COc1ccc(OC)c(C2C(C#N)=C(N)Oc3cc(C)n(Cc4ccccn4)c(=O)c32)c1 (configuration not stated)
> 50 µM (inactive) | CC(=O)Nc1nc2n(n1)C(c1ccc(F)cc1)C=C(c1ccccc1)N2 (configuration not stated)
